Results taken from article PMC9570109, “Improved Trimethylangelicin Analogs for Cystic Fibrosis: Design, Synthesis and Preliminary Screening” (International Journal of Molecular Sciences, 2022).

Experiments:
Assay type in all cases: cell-based
[1] = test system: Salmonella typhimurium TA100; assay: Ames mutagenicity assay, plate incorporation, TA100
Experimental: (§1) The mutagenicity assay was performed for the test compounds following the plate incorporation method with the histidine-requiring Salmonella typhimurium mutant TA97A, TA98, TA100, and TA1535 strains purchased by Molecular Toxicology Inc. (Boone, NC, USA; moltox.com). All strains (100 µL per plate of fresh overnight cultures) were checked with and without the addition of 0.5 mL of a 5% S9 exogenous metabolic activator (S9 mix). The lyophilized post-mitochondrial supernatant S9 mix (Aroclor 1254-induced, Sprague–Dawley male rat liver in 0.154 M KCl solution), commonly used for the activation of pro-mutagens in mutagenic metabolites (Molecular Toxicology, Inc., Boone, NC, USA), was stored at −80 °C before use. The concentration tested for all the samples were 5, 10, 20, 50, and 100 µL/plate from a stock solution of 500 nM. A fully grown culture of the appropriate tester strain (0.1 mL) was added to 2 mL molten top agar (0.6% agar, 0.6% NaCl, 0.5 mM L-histidine/biotin solution) at 46 °C, together with 0.1 mL of each sample solution at different concentrations, and 0.5 mL S9 mix for assays with metabolic activation. The ingredients were thoroughly mixed and poured onto minimal glucose agar plates (1.5% agar in 2% Vogel–Bonner medium E with 5% glucose solution). DMSO was used as negative a control (100 µL/plate). Positive controls were prepared as follows: 2-aminoanthracene (2 µg/plate) and 2-nitrofluorene (2 µg/plate) for TA 97A, TA98 and TA1535 with and without metabolic activator (S9 mix), respectively; 2-aminoanthracene (2 µg/plate) and sodium azide (2 µg/plate) for TA100, with and without metabolic activator (S9 mix), respectively. The plates were incubated at 37 °C for 72 h and then his+ revertants were checked and counted using a Colony Counter 560 Suntex (Antibioticos, Italy). A sample was considered mutagenic when the observed number of colonies was at least twofold over the spontaneous level of revertants. All determinations were made in triplicate. Statistical analysis: relative standard deviations were calculated using the statistical software STATISTICA 6.0 (StatSoft, Italia srl, Vigonza, Italy). […]
(§2) Salmonella typhimurium TA97A Salmonella typhimurium TA98 Salmonella typhimurium TA100 Salmonella typhimurium 1535 […]
(§3) average SD t/c average SD t/c average SD t/c average SD t/c average SD t/c average SD t/c average SD t/c average SD t/c […]
(§4) *Significant values according to Ames computation (Maron & Ames, 1983); DMSO, C+: negative and positive controls respectively; SD: Standard Deviation; t/c: number of revertant colonies in treated plates/number of revertant colonies in […]

[2] = test system: Salmonella typhimurium TA98; assay: Ames mutagenicity assay, plate incorporation, TA98
Experimental: as §1, §2, §3, §4

[3] = test system: Salmonella typhimurium TA97A; assay: Ames mutagenicity assay, plate incorporation, TA97A
Experimental: as §1, §2, §3, §4

[4] = test system: Salmonella typhimurium 1535; assay: Ames mutagenicity assay, plate incorporation, TA1535
Experimental: as §1, §2, §3, §4

[5] = TA100, +S9, 5 µL/plate of 500 nM stock
[6] = TA100, +S9, 10 µL/plate of 500 nM stock
[7] = TA100, +S9, 20 µL/plate of 500 nM stock
[8] = TA100, +S9, 50 µL/plate of 500 nM stock
[9] = TA100, +S9, 100 µL/plate of 500 nM stock
[10] = TA100, -S9, 5 µL/plate of 500 nM stock
[11] = TA100, -S9, 10 µL/plate of 500 nM stock
[12] = TA100, -S9, 20 µL/plate of 500 nM stock
[13] = TA100, -S9, 50 µL/plate of 500 nM stock
[14] = TA100, -S9, 100 µL/plate of 500 nM stock
[15] = TA98, +S9, 5 µL/plate of 500 nM stock
[16] = TA98, +S9, 10 µL/plate of 500 nM stock
[17] = TA98, +S9, 20 µL/plate of 500 nM stock
[18] = TA98, +S9, 50 µL/plate of 500 nM stock
[19] = TA98, +S9, 100 µL/plate of 500 nM stock
[20] = TA98, -S9, 5 µL/plate of 500 nM stock
[21] = TA98, -S9, 10 µL/plate of 500 nM stock
[22] = TA98, -S9, 20 µL/plate of 500 nM stock
[23] = TA98, -S9, 50 µL/plate of 500 nM stock
[24] = TA98, -S9, 100 µL/plate of 500 nM stock
[25] = +S9, 5 µL/plate of 500 nM stock
[26] = +S9, 10 µL/plate of 500 nM stock
[27] = +S9, 20 µL/plate of 500 nM stock
[28] = +S9, 50 µL/plate of 500 nM stock
[29] = +S9, 100 µL/plate of 500 nM stock
[30] = -S9, 5 µL/plate of 500 nM stock
[31] = -S9, 10 µL/plate of 500 nM stock
[32] = -S9, 20 µL/plate of 500 nM stock
[33] = -S9, 50 µL/plate of 500 nM stock
[34] = -S9, 100 µL/plate of 500 nM stock
[35] = 1535, +S9, 5 µL/plate of 500 nM stock
[36] = 1535, +S9, 10 µL/plate of 500 nM stock
[37] = 1535, +S9, 20 µL/plate of 500 nM stock
[38] = 1535, +S9, 50 µL/plate of 500 nM stock
[39] = 1535, +S9, 100 µL/plate of 500 nM stock
[40] = 1535, -S9, 5 µL/plate of 500 nM stock
[41] = 1535, -S9, 10 µL/plate of 500 nM stock
[42] = 1535, -S9, 20 µL/plate of 500 nM stock
[43] = 1535, -S9, 50 µL/plate of 500 nM stock
[44] = 1535, -S9, 100 µL/plate of 500 nM stock

SMILES: Cc1cc(=O)oc2c1cc(-c1ccc(N)cc1)c1occ(C)c12 [pANDMA]
- revertant colonies, average [1, 5]: 175.0
- t/c (revertant colonies treated/untreated plates) [1, 5]: 1.0
- revertant colonies, average [1, 6]: 181.5
- t/c (revertant colonies treated/untreated plates) [1, 6]: 1.1
- revertant colonies, average [1, 7]: 224.0
- t/c (revertant colonies treated/untreated plates) [1, 7]: 1.3
- revertant colonies, average [1, 8]: 232.0
- t/c (revertant colonies treated/untreated plates) [1, 8]: 1.4
- revertant colonies, average [1, 9]: 235.5
- t/c (revertant colonies treated/untreated plates) [1, 9]: 1.4
- revertant colonies, average [1, 10]: 192.0
- t/c (revertant colonies treated/untreated plates) [1, 10]: 1.0
- revertant colonies, average [1, 11]: 189.0
- t/c (revertant colonies treated/untreated plates) [1, 11]: 1.0
- revertant colonies, average [1, 12]: 204.5
- t/c (revertant colonies treated/untreated plates) [1, 12]: 1.0
- revertant colonies, average [1, 13]: 189.0
- t/c (revertant colonies treated/untreated plates) [1, 13]: 1.0
- revertant colonies, average [1, 14]: 165.5
- t/c (revertant colonies treated/untreated plates) [1, 14]: 0.8
- revertant colonies, average [2, 15]: 50.0
- t/c (revertant colonies treated/untreated plates) [2, 15]: 1.1
- revertant colonies, average [2, 16]: 48.0
- t/c (revertant colonies treated/untreated plates) [2, 16]: 1.0
- revertant colonies, average [2, 17]: 49.5
- t/c (revertant colonies treated/untreated plates) [2, 17]: 1.1
- revertant colonies, average [2, 18]: 51.0
- t/c (revertant colonies treated/untreated plates) [2, 18]: 1.1
- revertant colonies, average [2, 19]: 45.5
- t/c (revertant colonies treated/untreated plates) [2, 19]: 1.0
- revertant colonies, average [2, 20]: 40.5
- t/c (revertant colonies treated/untreated plates) [2, 20]: 1.0
- revertant colonies, average [2, 21]: 40.5
- t/c (revertant colonies treated/untreated plates) [2, 21]: 1.0
- revertant colonies, average [2, 22]: 43.5
- t/c (revertant colonies treated/untreated plates) [2, 22]: 1.1
- revertant colonies, average [2, 23]: 41.0
- t/c (revertant colonies treated/untreated plates) [2, 23]: 1.1
- revertant colonies, average [2, 24]: 39.0
- t/c (revertant colonies treated/untreated plates) [2, 24]: 1.0
- revertant colonies, average [3, 25]: 88.5
- t/c (revertant colonies treated/untreated plates) [3, 25]: 0.8
- revertant colonies, average [3, 26]: 100.5
- t/c (revertant colonies treated/untreated plates) [3, 26]: 0.9
- revertant colonies, average [3, 27]: 92.5
- t/c (revertant colonies treated/untreated plates) [3, 27]: 0.8
- revertant colonies, average [3, 28]: 104.5
- t/c (revertant colonies treated/untreated plates) [3, 28]: 1.0
- revertant colonies, average [3, 29]: 101.0
- t/c (revertant colonies treated/untreated plates) [3, 29]: 0.9
- revertant colonies, average [3, 30]: 82.5
- t/c (revertant colonies treated/untreated plates) [3, 30]: 1.1
- revertant colonies, average [3, 31]: 80.5
- t/c (revertant colonies treated/untreated plates) [3, 31]: 1.0
- revertant colonies, average [3, 32]: 82.0
- t/c (revertant colonies treated/untreated plates) [3, 32]: 1.1
- revertant colonies, average [3, 33]: 86.5
- t/c (revertant colonies treated/untreated plates) [3, 33]: 1.1
- revertant colonies, average [3, 34]: 86.0
- t/c (revertant colonies treated/untreated plates) [3, 34]: 1.1
- revertant colonies, average [4, 35]: 14.5
- t/c (revertant colonies treated/untreated plates) [4, 35]: 1.4
- revertant colonies, average [4, 36]: 17.0
- t/c (revertant colonies treated/untreated plates) [4, 36]: 1.6
- revertant colonies, average [4, 37]: 12.0
- t/c (revertant colonies treated/untreated plates) [4, 37]: 1.1
- revertant colonies, average [4, 38]: 13.0
- t/c (revertant colonies treated/untreated plates) [4, 38]: 1.2
- revertant colonies, average [4, 39]: 14.0
- t/c (revertant colonies treated/untreated plates) [4, 39]: 1.3
- revertant colonies, average [4, 40]: 17.5
- t/c (revertant colonies treated/untreated plates) [4, 40]: 1.6
- revertant colonies, average [4, 41]: 13.0
- t/c (revertant colonies treated/untreated plates) [4, 41]: 1.2
- revertant colonies, average [4, 42]: 5.5
- t/c (revertant colonies treated/untreated plates) [4, 42]: 0.5
- revertant colonies, average [4, 43]: 9.5
- t/c (revertant colonies treated/untreated plates) [4, 43]: 0.9
- revertant colonies, average [4, 44]: 10.0
- t/c (revertant colonies treated/untreated plates) [4, 44]: 0.9
